# Where two headings read alike, the source gives them in different places.
# Test system: Staphylococcus haemolyticus CNCM I-4170
# Assay: Protocol A: in-vitro malodor inhibition (free thiol groups from Cys-Gly precursor, DTNB absorbance at 412 nm)
# Format: cell-based
# Conditions: for inhibition at 0.0012 % / inhibition at 0.005 % / inhibition at 0.0025 % / inhibition at 0.006 % / inhibition at 0.0125 % / inhibition at 0.025 % / inhibition at 0.0006 % / inhibition at 0.05 % / inhibition at 0.1 %: Staphylococcus haemolyticus, CNCMI4170, read-out: Ingredient Malodor Inhibition Value (%); for inhibition at 0.005 %: 0.005 w/v % in medium; for inhibition at 0.0006 %: 0.0006 w/v % in medium
# Excerpt: Further details of such a screening and % inhibition measurement and definition are described further on in this application. The precursor used, which may also be in the form of a human sweat sample, typically generates malodorant sulfur compounds when acted upon by the Staphylococcus haemolyticus cells, or by a β-lyase present in such cells. The malodor inhibition coefficient, as defined herein, reflects the % of reduction in free SH groups generated in the above-mentioned medium by the enzymatic activity of the bacterial cells when in presence of the MOC ingredient or MOC composition in question, as compared to the same measurement in their absence. […] Alternatively, the bacterial cells can be replaced by a β-lyase present in said cells. […] Detection of enzymatic activity inhibition is measured via the sulfur groups, namely thiol groups, freed from the precursor bacterial transformation, by comparison with the reference experiment in the absence of the respective MOC ingredient, said sulfur groups being detected by interaction with DTNB, a known chemical detector system for thiols. The reaction can be monitored by absorbance reading at 412 nm. The procedure can be performed indifferently with either a purified or semi-purified enzyme or intact bacterial cells, as in the case described here. Malodor inhibition coefficient is measured as a function of the percentage of free thiol groups in the medium, over time, by an absorbance method, and reflects the reduction in malodor obtained in the presence of the MOC ingredients and compositions. […] At the end of the growth phase, the bacterial cells were harvested by centrifugation at 5000 rpm for 15 min. The cell pellet was then washed with 0.1 volumes of sterile potassium phosphate buffer 0.1 M, pH 7.5. […] The precursor was used at 0.17 mM final concentration. • Detection reagent DTNB • DTNB (5,5′-Dithio-bis-(2-nitrobenzoic acid; […]
# [1] = Table 2, 0.0012 w/v % in medium
# [2] = Table 2, 0.0025 w/v % in medium
# [3] = Table 2, 0.0125 w/v % in medium
SMILES,inhibition at 0.0012 % [1],inhibition at 0.005 % (Table 2),inhibition at 0.0012 % (0.0012 w/v % in medium),inhibition at 0.0025 % (0.0025 w/v % in medium),inhibition at 0.006 % (0.006 w/v % in medium),inhibition at 0.0125 % (0.0125 w/v % in medium),inhibition at 0.025 % (0.025 w/v % in medium),inhibition at 0.0025 % [2],other results
C=CCCCCCCCCC=O [10-Undecenal],3%,49.2%,–,–,–,–,–,–,–
"CC/C(=C\C[C@H]1CC=C(C)C1(C)C)CO [(-)-(2E)-2-Ethyl-4-[(1R)-2,2,3-trimethyl-3-cyclopenten-1-yl]-2-buten-1-ol]",–,–,0%,21.2%,70.8%,80%,80.3%,–,–
CCCCCCC/C=C/C=O [(E)-2-Decenal],22%,66.6%,–,–,–,–,–,28.2%,"inhibition at 0.0125 % [3]: 90.1%; inhibition at 0.025 % (Table 2, 0.025 w/v % in medium): 100%"
CCCCCCCCC/C=C/C=O [(E)-2-Dodecenal],29.7%,86.9%,–,–,–,–,–,55.4%,inhibition at 0.0006 % (Table 2): 10.4%; inhibition at 0.0125 % [3]: 94%
CCCCC/C=C/CCC=O [(E)-4-Decenal],22%,66.6%,–,–,–,–,–,28.2%,"inhibition at 0.0125 % [3]: 90.1%; inhibition at 0.025 % (Table 2, 0.025 w/v % in medium): 100%"
CCCCCCC/C=C\CCC=O [(Z)-4-Dodecenal],0%,76.5%,–,–,–,–,–,6.96%,inhibition at 0.0006 % (Table 2): 0%
"CC1(C)CCCC2(C)C1CCC1(C)OCCC12 (stereo not shown) [Ambrox ®, 8,12-epoxy-13,14,15,16-tetranorlabdane]",–,–,–,–,–,–,–,–,Ingredient Malodor Inhibition Value (%) (0.0012 w/v % in medium): 0.00%; Ingredient Malodor Inhibition Value (%) (0.0025 w/v % in medium): 0.00%; Ingredient Malodor Inhibition Value (%) (0.05 w/v % in medium): 18.23%; Ingredient Malodor Inhibition Value (%) (0.1 w/v % in medium): 38.00%
"CC(C)(C)c1ccc(CCC=O)cc1 [Bourgeonal, 3-(4-tert-butylphenyl)propanal]",–,–,4.15%,7.06%,42.6%,–,–,–,–
"CC1C(C)(C)C2=C(C(=O)CCC2)C1(C)C (stereo not shown) [Cashmeran, 1,2,3,5,6,7-hexahydro-1,1,2,3,3-pentamethyl-4-indenone]",–,–,0%,0%,19.2%,54%,71.5%,–,inhibition at 0.05 % (0.05 w/v % in medium): 70.1%; inhibition at 0.1 % (0.1 w/v % in medium): 73.2%
"CC(C)(O)CCC1CCCCC1 [Coranol ®, 4-cyclohexyl-2-methyl-2-butanol]",–,–,0%,0%,10.8%,49.8%,77.7%,–,inhibition at 0.1 % (0.1 w/v % in medium): 77.8%
"CC(C=O)Cc1ccc(C(C)(C)C)cc1 (stereo not shown) [Lilial ®, 3-(4-tert-butylphenyl)-2-methylpropanal]",–,–,0.9%,9.47%,37.5%,81%,90%,–,–
C=CC(C)(O)CCC=C(C)CCC=C(C)C (stereo not shown) [Nerolidol],–,–,0%,6.52%,53.5%,56.9%,68.5%,–,inhibition at 0.05 % (0.05 w/v % in medium): 66.8%
CCCCCCCCC=O [Nonanal],5.26%,40.2%,–,–,–,–,–,5.08%,"inhibition at 0.0125 % [3]: 80.4%; inhibition at 0.025 % (Table 2, 0.025 w/v % in medium): 94.8%; inhibition at 0.05 % (Table 2, 0.05 w/v % in medium): 97.8%"
CCC(C)CCCC(C)(C)O (stereo not shown) [Tetrahydromyrcenol],–,–,–,–,–,–,–,–,Ingredient Malodor Inhibition Value (%) (0.0012 w/v % in medium): 0.00%; Ingredient Malodor Inhibition Value (%) (0.0025 w/v % in medium): 0.00%; Ingredient Malodor Inhibition Value (%) (0.006 w/v % in medium): 0.00%; Ingredient Malodor Inhibition Value (%) (0.0125 w/v % in medium): 0.00%; Ingredient Malodor Inhibition Value (%) (0.025 w/v % in medium): 41.38%; Ingredient Malodor Inhibition Value (%) (0.05 w/v % in medium): 72.56%; Ingredient Malodor Inhibition Value (%) (0.1 w/v % in medium): 66.63%

# Reference: patent US20150297482A1, “MALODOR COUNTERACTING COMPOSITIONS AND METHOD FOR THEIR USE TO COUNTERACT SWEAT MALODOR” (FIRMENICH SA, priority 2009, published 2015)
